US10221163B2 (priority 2015, dated 2019)
pIC50: −log10 of the molar value.

Columns and labels:
[1] = biological target: IMP-1 (Serratia marcescens, UniProt P52699); assay: biochemical; format: biochemical; conditions: fluorescence assay, CCF2-FA substrate, 2 pM enzyme, 2 hours at 25° C.; read-out: IMP-1 IC50
Experimental: (§1) Enzyme Activity: Determination of IC50
(§2) The Class B enzyme activities were measured in the presence of the test inhibitor in a fluorescence assay against a commercially available substrate consisting of a cephalosporin core linking 7-hydroxycoumarin to fluorescein (CCF2-FA). […] In a 384-well microplate, the test inhibitor was incubated with the metallo-β-lactamase enzyme and the substrate for 2 hours at 25° C. […] The IC50 value was determined from semi-logarithmic plots of enzyme inhibition versus inhibitor concentration, with a curve generated using a 4-parameter fit.

[2] = tested on: Escherichia coli expressing NDM-1 (CLB30005, CLB30016); format: cell-based; conditions: with imipenem 1 μg/ml; for Escherichia coli expressing NDM-1 (CLB30016) MITC95: 95% inhibition of bacterial growth; for Escherichia coli MITC95: NDM-1 strain, 95% inhibition of growth
Experimental: (§3) Antibiotic Potentiation Activity: Determination of Synergistic Concentration
(§4) The bacterial strains tested included the clinical strains Escherichia coli expressing NDM-1 (CLB30005, CLB30016), Serratia marcescens expressing IMP-1 (CL5741), and Klebsiella pneumoniae expressing VIM-1 (IHMA599644). Inhibitor activity was measured in the presence and absence of imipenem in a 384-well microplate.
(§5) The clinical strains CLB30016, CL5741 and IHMA599644 were grown on trypticase soy agar containing 5% sheep's blood. The bacteria on agar plates were incubated at 35° C. with humidity overnight. The following day, individual colonies from each clinical strain were picked and resuspended in 5 ml saline to attain an OD600 of […], for CLB30016, CL5741 and IHMA599644, respectively. These were further diluted 1:100 into 1.1×CAMHB and used to inoculate the test wells as described below.
(§6) Imipenem in 10 mM 3-(N-morpholino)propanesulfonic acid (MOPS, pH 7) was stored in single use aliquots at −80° C. […] On the day of the assay, 4 μl of antibiotic was added to 45 ul of bacteria followed by 1 μl of test compound and mixed by pipetting and with an orbital shaker. The concentration of antibiotic used in the assay was 1 μg/ml. Microplates were covered and incubated at 35° C. for 22 hours to 24 hours. At the end of the incubation, absorbance was determined using a spectrophotometer.

[3] = tested on: Klebsiella pneumoniae expressing VIM-1 (IHMA599644); format: cell-based; conditions: for Klebsiella pneumoniae expressing VIM-1 (IHMA599644) MITC95: with imipenem 1 μg/ml, 95% inhibition of bacterial growth; for Klebsiella pneumoniae MITC95: VIM-1 strain IHMA599644, with imipenem 1 μg/ml, 95% inhibition of growth
Experimental: as §3, §4, §5, §6

[4] = tested on: Serratia marcescens expressing IMP-1 (CL5741); format: cell-based; conditions: for Serratia marcescens expressing IMP-1 (CL5741) MITC95: with imipenem 1 μg/ml, 95% inhibition of bacterial growth; for Serratia marcescens MITC95: IMP-1 strain CL5741, with imipenem 1 μg/ml, 95% inhibition of growth
Experimental: as §3, §4, §5, §6

[5] = tested on: Pseudomonas aeruginosa efflux+ (MB9798), IMP-1; format: cell-based; set-up: Concentration of metallo-β-lactamase inhibitor which restores susceptibility of efflux + (MB9798) strain to imipenem: unit not given here; conditions: C, D serine β-lactamase inhibitor closely related to relebactam; for P. aeruginosa expressing IMP-1, efflux + (MB9798) MITC95: concentration restoring susceptibility to imipenem at 2 μg/mL in the presence of a class A; for Concentration of metallo-β-lactamase inhibitor which restores susceptibility of efflux + (MB9798) strain to imipenem: imipenem at 2 μg/mL, in the presence of a class A
Text: (§7) The strain background was Pseudomonas aeruginosa PAO1.
(§8) The strain set was then used as a pair to determine the effect of metallo-β-lactamase inhibitors of Formula I on the MIC of imipenem and/or ceftazidime. A fixed concentration of antibiotic was included in standard microbroth MIC tests, usually at the CLSI (Clinical and Laboratory Standards Institute) breakpoint concentration. A fixed amount of a class A/C beta-lactamase inhibitor was also included to inhibit the resident Pseudomonas AmpC enzyme. A serial titration of the metallo-β-lactamase inhibitor was included and the concentration of metallo-β-lactamase inhibitor which restores susceptibility of the strain to the included antibiotic was recorded. That concentration of metallo-β-lactamase inhibitor was then compared between the two strains to determine the fold difference between the efflux+ (MB9798) and efflux− (MB9799) strains. This was taken as an indication of the extent to which the MBLi is subject to efflux.

[6] = tested on: Pseudomonas aeruginosa efflux− (MB9799), IMP-1; format: cell-based; conditions: C, D serine β-lactamase inhibitor closely related to relebactam; for P. aeruginosa expressing IMP-1, efflux − (MB9799) MITC95: concentration restoring susceptibility to imipenem at 2 μg/mL in the presence of a class A; for Concentration of metallo-β-lactamase inhibitor which restores susceptibility of efflux − (MB9799) strain to imipenem: imipenem at 2 μg/mL, in the presence of a class A
Text: as §7, §8

[7] = biological target: NDM-1 (Klebsiella pneumoniae, UniProt C7C422); assay: biochemical; format: biochemical; conditions: fluorescence assay, CCF2-FA substrate, 1 pM enzyme, 2 hours at 25° C.; read-out: NDM-1 IC50
NDM-1, sequence (C7C422 whole entry, looked up, species assumed): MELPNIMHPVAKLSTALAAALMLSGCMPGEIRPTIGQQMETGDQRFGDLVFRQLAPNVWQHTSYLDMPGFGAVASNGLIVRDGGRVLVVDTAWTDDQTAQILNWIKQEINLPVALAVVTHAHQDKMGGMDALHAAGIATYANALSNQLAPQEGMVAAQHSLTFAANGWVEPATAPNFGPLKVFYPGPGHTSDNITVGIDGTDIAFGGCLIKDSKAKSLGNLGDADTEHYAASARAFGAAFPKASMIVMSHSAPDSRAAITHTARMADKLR
Experimental: as §1, §2

IMP-1, sequence (P52699 whole entry, looked up, species assumed): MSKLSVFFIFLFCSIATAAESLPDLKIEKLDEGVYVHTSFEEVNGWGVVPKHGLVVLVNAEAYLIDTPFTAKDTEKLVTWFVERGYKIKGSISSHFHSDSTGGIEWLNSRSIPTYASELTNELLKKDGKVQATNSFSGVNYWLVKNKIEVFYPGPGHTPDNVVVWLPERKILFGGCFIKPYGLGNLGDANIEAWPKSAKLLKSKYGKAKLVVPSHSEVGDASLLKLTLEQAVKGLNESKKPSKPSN

Row | Structure (SMILES) | pIC50 [1] | Escherichia coli expressing NDM-1 (CLB30016) MITC95 [2] | Klebsiella pneumoniae expressing VIM-1 (IHMA599644) MITC95 [3] | Serratia marcescens expressing IMP-1 (CL5741) MITC95 [4] | P. aeruginosa expressing IMP-1, efflux + (MB9798) MITC95 [5] | P. aeruginosa expressing IMP-1, efflux − (MB9799) MITC95 [6] | pIC50 [7] | Escherichia coli MITC95 [2] | Klebsiella pneumoniae MITC95 [3] | Serratia marcescens MITC95 [4] | Concentration of metallo-β-lactamase inhibitor which restores susceptibility of efflux + (MB9798) strain to imipenem [5] | Concentration of metallo-β-lactamase inhibitor which restores susceptibility of efflux − (MB9799) strain to imipenem [6]
1 | CS(=O)(=O)C1CCN(S(=O)(=O)c2ccc(-c3cccc4sc(N)nc34)c(-c3nnn[nH]3)c2S(N)(=O)=O)C1 (centres unmarked) [Example 45, 3-(2-amino-1,3-benzothiazol-4-yl)-6-{[3-(methylsulfonyl)pyrrolidin-1-yl]sulfonyl}-2-(1H-tetrazol-5-yl)benzenesulfonamide] | 8.78 | 50 µM | 25 µM | 6.25 µM | 25 µM | 3.125 µM | – | – | – | – | – | –
2 | NCC(=O)NC1C=C(c2ccc(S(=O)(=O)N[C@@H]3CCNC3)c(S(N)(=O)=O)c2-c2nn[nH]n2)CCC1 (stereo partly drawn) [Example 269, 2-Amino-N-(4′-(N—((R)-pyrrolidin-3-yl)sulfamoyl)-3′-sulfamoyl-2′-(2H-tetrazol-5-yl)-3,4,5,6-tetrahydro-[1,1′-biphenyl]-3-yl)acetamide] | 8.39 | – | – | – | 3.125 µM | 1.563 µM | 8.93 | 1.563 µM | 3.125 µM | 1.563 µM | – | –
3 | C[N+]1(C)CC(NS(=O)(=O)c2ccc(-c3cccc4[nH]c(N)nc34)c(-c3nn[nH]n3)c2S(N)(=O)=O)C1.O=C([O-])O [Example 245, 3-(4-(2-Amino-1H-benzo[d]imidazol-4-yl)-2-sulfamoyl-3-(2H-tetrazol-5-yl)phenylsulfonamido)-1,1-dimethylazetidin-1-ium hydrogencarbonate] | – | – | – | – | 1.563 µM | 1.563 µM | – | 0.7813 µM | 3.125 µM | 1.563 µM | – | –
4 | Nc1nc2c(-c3ccc(S(=O)(=O)NCC4(O)CNC4)c(S(N)(=O)=O)c3-c3nn[nH]n3)cccc2s1 [Example 387, 4-(2-amino-1,3-benzothiazol-4-yl)-N^1-[(3-hydroxyazetidin-3-yl)methyl]-3-(2H-tetrazol-5-yl)benzene-1,2-disulfonamide] | 9.61 | – | – | – | 0.7813 µM | 1.563 µM | 10.19 | 1.563 µM | 6.25 µM | 1.563 µM | – | –
5 | Nc1nc2c(-c3ccc(S(=O)(=O)N[C@@H]4CCNC4)c(S(N)(=O)=O)c3-c3nnn[nH]3)cc(F)cc2[nH]1 [Example 181, (R)-4-(2-amino-6-fluoro-1H-benzo[d]imidazol-4-yl)-N^1-(pyrrolidin-3-yl)-3-(1H-tetrazol-5-yl)benzene-1,2-disulfonamide] | 9.56 | 0.3906 µM | 1.563 µM | 0.7813 µM | 0.3906 µM | 0.7813 µM | 10.43 | – | – | – | – | –
6 | C[C@H](CN)NS(=O)(=O)c1ccc(-c2cc(F)cc3[nH]c(N)nc23)c(-c2nn[nH]n2)c1S(N)(=O)=O [Example 396] | 9.66 | – | – | – | – | – | 10.57 | 0.7813 µM | 3.125 µM | 0.3906 µM | 0.7813 | 1.563
7 | Nc1nc2c(-c3ccc(S(=O)(=O)NCC4(N)CCOC4)c(S(N)(=O)=O)c3-c3nnn[nH]3)cccc2s1.O=CO (centres unmarked) [Example 114, 3-((4-(2-aminobenzo[d]thiazol-4-yl)-2-sulfamoyl-3-(1H-tetrazol-5-yl)phenylsulfonamido)methyl)tetrahydrofuran-3-aminium formate] | – | 3.125 µM | 6.25 µM | 3.125 µM | 3.125 µM | 3.125 µM | 10.19 | – | – | – | – | –
8 | C[C@@H](N)CNS(=O)(=O)c1ccc(-c2ccnc(N)c2)c(-c2nn[nH]n2)c1S(N)(=O)=O [Example 422] | 9.01 | – | – | – | – | – | 9.41 | 0.3906 µM | 1.563 µM | 0.7813 µM | 1.563 | 0.7813
9 | C[N+]1(CCN)CC[C@@H](NS(=O)(=O)c2ccc(-c3cccc4[nH]c(N)nc34)c(-c3nn[nH]n3)c2S(N)(=O)=O)C1.O=CO[O-] (stereo partly drawn) [Example 248, (3R)-3-{[4-(2-amino-1H-1,3-benzodiazol-4-yl)-2-sulfamoyl-3-(2H-1,2,3,4-tetrazol-5-yl)benzene]sulfonamido}-1-(2-aminoethyl)-1-methylpyrrolidin-1-ium; methaneperoxoate] | 9.83 | – | – | – | 0.7813 µM | 0.7813 µM | 10.98 | 0.3906 µM | 0.7813 µM | 1.563 µM | – | –
10 | Nc1ncc(-c2ccc(S(=O)(=O)N[C@@H]3CCNC3)c(S(N)(=O)=O)c2-c2nn[nH]n2)s1 [Example 284] | 9.39 | – | – | – | 0.7813 µM | 0.7813 µM | – | 1.563 µM | 1.563 µM | 0.7813 µM | – | –
11 | Nc1ccc(-c2ccc(S(=O)(=O)NCCc3c[nH]cn3)c(S(N)(=O)=O)c2-c2nn[nH]n2)cn1 [Example 217, N^1-(2-(1H-imidazol-4-yl)ethyl)-4-(6-aminopyridin-3-yl)-3-(2H-tetrazol-5-yl)benzene-1,2-disulfonamide] | – | 0.3906 µM | 3.125 µM | 1.563 µM | 12.5 µM | 1.563 µM | 9.35 | – | – | – | – | –
12 | Nc1nc2c(-c3ccc(S(=O)(=O)N[C@H]4C[C@H](N)C4)c(S(N)(=O)=O)c3-c3nnn[nH]3)cccc2s1 [Example 71, 4-(2-amino-1,3-benzothiazol-4-yl)-N^1-(trans-3-aminocyclobutyl)-3-(1H-tetrazol-5-yl)benzene-1,2-disulfonamide] | – | 1.563 µM | 3.125 µM | 3.125 µM | 1.563 µM | 1.563 µM | 10.21 | – | – | – | – | –
